Experimental data as given in paper PMC9120017, “Inhibition mechanism of the chloride channel TMEM16A by the pore blocker 1PBC” (Nature Communications, 2022).
Where two headings read alike, the source gives them in different places.

Molecular target: T1, mouse TMEM16A mutant Q637A (Mus musculus, UniProt Q8BHY3, Q637A)
T1 construct: expressed in transfected cells; host or cells: HEK293T
T1 sequence (Q8BHY3 1-960 Q637A): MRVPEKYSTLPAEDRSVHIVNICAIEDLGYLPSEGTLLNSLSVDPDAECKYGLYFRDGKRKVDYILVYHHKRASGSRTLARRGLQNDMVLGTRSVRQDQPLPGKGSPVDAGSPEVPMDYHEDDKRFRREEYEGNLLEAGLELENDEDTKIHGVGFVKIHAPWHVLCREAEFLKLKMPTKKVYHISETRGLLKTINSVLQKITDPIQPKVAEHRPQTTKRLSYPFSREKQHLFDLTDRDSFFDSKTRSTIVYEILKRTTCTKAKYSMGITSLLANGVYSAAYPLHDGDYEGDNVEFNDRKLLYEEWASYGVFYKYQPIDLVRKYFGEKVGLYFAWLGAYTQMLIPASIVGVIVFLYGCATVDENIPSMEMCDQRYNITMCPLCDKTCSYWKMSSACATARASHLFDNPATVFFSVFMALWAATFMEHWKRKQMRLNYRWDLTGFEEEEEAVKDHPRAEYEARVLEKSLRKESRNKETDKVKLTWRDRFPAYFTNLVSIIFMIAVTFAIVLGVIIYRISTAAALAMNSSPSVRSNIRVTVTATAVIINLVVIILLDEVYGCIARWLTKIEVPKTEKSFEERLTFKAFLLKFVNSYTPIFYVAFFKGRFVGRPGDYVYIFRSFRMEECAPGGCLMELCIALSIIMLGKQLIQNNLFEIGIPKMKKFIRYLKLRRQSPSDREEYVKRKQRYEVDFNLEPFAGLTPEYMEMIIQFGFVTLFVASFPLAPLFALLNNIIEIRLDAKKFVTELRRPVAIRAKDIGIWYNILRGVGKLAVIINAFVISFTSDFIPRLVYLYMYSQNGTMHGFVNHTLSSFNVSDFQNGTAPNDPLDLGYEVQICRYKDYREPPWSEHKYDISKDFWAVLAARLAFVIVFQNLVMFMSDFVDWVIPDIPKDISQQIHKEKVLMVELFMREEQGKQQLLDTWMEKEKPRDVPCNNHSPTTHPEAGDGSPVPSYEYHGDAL
Assay: Inside-out patch recording of 1PBC block, mutant Q637A
Format: cell-based
Conditions: for remaining activity at 1 µM: 1PBC conc 1; for remaining activity at 1 µM / remaining activity at 3 µM / remaining activity at 10 µM / remaining activity at 30 µM: read-out: relative current in 1PBC (avr); for remaining activity at 3 µM: 1PBC conc 3; for remaining activity at 10 µM: 1PBC conc 10; for remaining activity at 30 µM: 1PBC conc 30
Protocol: HEK293T cells (ATCC CRL-1573) were maintained in Dulbecco’s modified Eagle’s medium (DMEM; Sigma-Aldrich) supplemented with 10 U ml^−1 penicillin, 0.1 mg ml^−1 streptomycin (Sigma-Aldrich), 2 mM L-glutamine (Sigma-Aldrich), and 10% FBS (Sigma-Aldrich) in a humidified atmosphere containing 5% CO2 at 37 °C. HEK293S GnTI^− cells (ATCC CRL-3022) were maintained in HyClone HyCell TransFx-H medium (GE Healthcare) supplemented with 10 U ml^−1 penicillin, 0.1 mg ml^−1 streptomycin, 4 mM L-glutamine, 0.15% poloxamer 188 (Sigma-Aldrich), and 1% FBS in an atmosphere containing 5% CO2 at 185 rpm at 37 °C. The ac splice variant of mouse TMEM16A (UniProt ID: Q8BHY3), mouse TMEM16B (UniProt ID: Q8CFW1), or mouse TMEM16F (UniProt ID: Q6P9J9) bearing a 3C cleavage site, a Venus YFP, a Myc tag, and a Streptavidin-binding peptide (SBP) downstream of the open reading frame in a modified pcDNA3.1 vector (Invitrogen) were used as described previously[21],[31]. Mutations were introduced using a modified QuikChange method[58] and were verified by sequencing.
HEK293T cells were transfected with 3–4 μg DNA per 6 cm Petri dish using the calcium phosphate co-precipitation method and were used within 24–96 h after transfection. Recordings were performed on inside-out patches excised from HEK293T cells expressing the construct of interest. Patch pipettes were pulled from borosilicate glass capillaries (O.D. 1.5 mm, I.D. 0.86 mm, Sutter Instrument) and were fire-polished with a microforge (Narishige) before use. Pipette resistance was typically 3–8 MΩ when filled with the recording solutions detailed below. Seal resistance was typically 4 GΩ or higher. Voltage-clamp recordings were made using Axopatch 200B, Digidata 1550, and Clampex 10.7 (Molecular Devices). Analog signals were filtered with the in-built 4-pole Bessel filter at 10 kHz and were digitized at 20 kHz. Solution exchange was achieved using a gravity-fed system through a theta glass pipette mounted on an ultra-fast piezo-driven stepper (Siskiyou). […] All recordings were performed at 20 °C.
A symmetrical ionic condition was used throughout. Stock solution with Ca^2+-EGTA contained 150 mM NaCl, 5.99 mM Ca(OH)2, 5 mM EGTA, and 10 mM HEPES at pH 7.40. Stock solution with EGTA contained 150 mM NaCl, 5 mM EGTA, and 10 mM HEPES at pH 7.40. Free Ca^2+ concentrations were adjusted by mixing the stock solutions at the required ratios calculated using the WEBMAXC program (http://web.stanford.edu/~cpatton/webmaxcS.htm). Patch pipettes were filled with the stock solution with Ca^2+-EGTA, which has a free Ca^2+ concentration of 1 mM. 1PBC (ChemBridge) stock was reconstituted in anhydrous DMSO (Sigma-Aldrich) at 100 mM and stored at −20 °C. Working solutions with 1PBC were prepared by serial dilution. Unless otherwise stated, experiments were performed at a saturating Ca^2+ concentration as shown in Supplementary Table 1 and the primary data were corrected for current rundown as described previously[21],[25].
Concentration-response relations, obtained from the ratio of the I-V plots before and after the application of the blocker, were fitted to the Hill equation,1 I/Imax=1/1+IC50/[blocker]^h where I/Imax is the normalized current responses, IC50 defines the concentration at which inhibition is at its half-maximum, and h is the Hill coefficient.

## N#Cc1c(C(F)(F)F)cc(O)n2c1nc1ccccc12 [1PBC]
0 mV, 2 µM Ca2+
  IC50: 1820 nM
0 mV
  remaining activity at 1 µM: 65.8%
  remaining activity at 3 µM: 36.3%
  remaining activity at 10 µM: 15.5%
  remaining activity at 30 µM: 6.35%
20 mV, 2 µM Ca2+
  IC50: 1400 nM
20 mV
  remaining activity at 1 µM: 59.7%
  remaining activity at 3 µM: 30.3%
  remaining activity at 10 µM: 12.3%
  remaining activity at 30 µM: 4.62%
40 mV, 2 µM Ca2+
  IC50: 1150 nM
40 mV
  remaining activity at 1 µM: 54.8%
  remaining activity at 3 µM: 26.2%
  remaining activity at 10 µM: 10.3%
  remaining activity at 30 µM: 3.87%
60 mV, 2 µM Ca2+
  IC50: 956 nM
60 mV
  remaining activity at 1 µM: 49.7%
  remaining activity at 3 µM: 22.8%
  remaining activity at 10 µM: 9%
  remaining activity at 30 µM: 3.77%
80 mV
  log-fold IC50 (change of mutant vs WT): -0.3333
  remaining activity at 1 µM: 47.5%
  remaining activity at 3 µM: 21%
  remaining activity at 10 µM: 9.17%
  remaining activity at 30 µM: 3.99%
80 mV, 2 µM Ca2+
  IC50: 880 nM
100 mV, 2 µM Ca2+
  IC50: 898 nM
100 mV
  remaining activity at 1 µM: 48.7%
  remaining activity at 3 µM: 20.5%
  remaining activity at 10 µM: 9.32%
  remaining activity at 30 µM: 4.29%
120 mV, 2 µM Ca2+
  IC50: 985 nM
120 mV
  remaining activity at 1 µM: 50.9%
  remaining activity at 3 µM: 22%
  remaining activity at 10 µM: 10.5%
  remaining activity at 30 µM: 5.23%
140 mV, 2 µM Ca2+
  IC50: 1170 nM
140 mV
  remaining activity at 1 µM: 55.6%
  remaining activity at 3 µM: 24.7%
  remaining activity at 10 µM: 12.4%
  remaining activity at 30 µM: 6.82%
-20 mV, 2 µM Ca2+
  IC50: 2340 nM
-20 mV
  remaining activity at 1 µM: 71.8%
  remaining activity at 3 µM: 42.4%
  remaining activity at 10 µM: 18.6%
  remaining activity at 30 µM: 8.09%
-40 mV, 2 µM Ca2+
  IC50: 3080 nM
-40 mV
  remaining activity at 1 µM: 76.6%
  remaining activity at 3 µM: 49.5%
  remaining activity at 10 µM: 23.3%
  remaining activity at 30 µM: 10.7%
-60 mV, 2 µM Ca2+
  IC50: 4040 nM
-60 mV
  remaining activity at 1 µM: 81.3%
  remaining activity at 3 µM: 56.4%
  remaining activity at 10 µM: 28.3%
  remaining activity at 30 µM: 13.4%
-80 mV, 2 µM Ca2+
  IC50: 5190 nM
-80 mV
  remaining activity at 1 µM: 84.8%
  remaining activity at 3 µM: 62.7%
  remaining activity at 10 µM: 33.3%
  remaining activity at 30 µM: 16.6%
-100 mV, 2 µM Ca2+
  IC50: 6660 nM
-100 mV
  remaining activity at 1 µM: 87.3%
  remaining activity at 3 µM: 68.5%
  remaining activity at 10 µM: 38.7%
  remaining activity at 30 µM: 20.5%
-120 mV, 2 µM Ca2+
  IC50: 8290 nM
-120 mV
  remaining activity at 1 µM: 88.8%
  remaining activity at 3 µM: 72.5%
  remaining activity at 10 µM: 44.2%
  remaining activity at 30 µM: 24.7%
-140 mV, 2 µM Ca2+
  IC50: 10200 nM
-140 mV
  remaining activity at 1 µM: 89.3%
  remaining activity at 3 µM: 76.3%
  remaining activity at 10 µM: 49.3%
  remaining activity at 30 µM: 28.8%
Q637A, V 0 mV
  IC50: 1820 nM
Q637A, V 20 mV
  IC50: 1400 nM
Q637A, V 40 mV
  IC50: 1150 nM
Q637A, V 60 mV
  IC50: 956 nM
Q637A, V 80 mV
  IC50: 880 nM
Q637A, V 100 mV
  IC50: 898 nM
Q637A, V 120 mV
  IC50: 985 nM
Q637A, V 140 mV
  IC50: 1170 nM
Q637A, V -20 mV
  IC50: 2340 nM
Q637A, V -40 mV
  IC50: 3080 nM
Q637A, V -60 mV
  IC50: 4040 nM
Q637A, V -80 mV
  IC50: 5190 nM
Q637A, V -100 mV
  IC50: 6660 nM
Q637A, V -120 mV
  IC50: 8290 nM
Q637A, V -140 mV
  IC50: 10200 nM
